Article PMC10102067, “Synthesis of vancomycin fluorescent probes that retain antimicrobial activity, identify Gram-positive bacteria, and detect Gram-negative outer membrane damage” (Communications Biology, 2023)

How the values were obtained:
E. coli = test: microbe, parasite or virus in culture; details: 3 h
Procedure: Bacteria were obtained from the American Type Culture Collection (ATCC; Manassas, VA, USA), Merck Sharp & Dohme (Kenilworth, NJ), the Coli Genetic Stock Center (CGSC, Yale University), Network on Antimicrobial Resistance in Staphylococcus aureus (NARSA) via BEI Resources (www.beiresources.org) and independent academic clinical isolate and mutant collections. All species used in this study were described fully in Table S4. Bacteria were cultured in Cation-Adjusted Mueller-Hinton Broth (CAMHB, Bacto Laboratories, Cat No. 212322) or Muller Hinton Broth (MHB, Bacto Laboratories, Cat No. 211443) at 37 °C overnight. A sample of each culture was then diluted 50-fold in MHB and incubated at 37 °C for 1.5–3 h. The stock solutions of vancomycin probes 7, 8 and 9 were prepared at 1.28 mg/mL in sterile water. The compounds were serially diluted two-fold across the wells, with concentrations ranging from 0.06 µg/mL to 128 µg/mL, plated in duplicate. […]

S. aureus ATCC 25923 [1] = test: Flow cytometry comparison with commercial fluorescent probes (Fig. S2A); format: cell-based; details: 2 and 16 µg/mL, 30 min 37 °C
Description: (§1) Figure S2. Comparison of probe 7 and probe 9 to commercial fluorescent probes using flow cytometry and microscopy. Labelling of S. aureus ATCC 25923 (A) and E. coli ATCC25922 (B) with vancomycin probe 7, probe 9, Van-FITC (SBR00028, Sigma-Aldrich), and Van-BODIPY (V34850, Invitrogen™) measured using flow […]
(§2) flow cytometer. The data are presented as the mean ± SEM (n = 3). GeoMean: Geometric Mean. (C) Airyscan confocal super-resolution imaging of vancomycin probe 7, probe 9, Van-FITC (SBR00028, Sigma-Aldrich), and Van-BODIPY (V34850, Invitrogen™) in S. aureus ATCC 25923. Bacteria were stained with probes (2 and 16 µg/mL, Green) for 30 min at 37 °C. Arrows indicate cells with Van-BODIPY entering cytoplasm. Scale bar = 1 µm.
(§3) (1 picture or pasted object on this page, not shown here)

E. coli ATCC25922 = test: Flow cytometry comparison with commercial fluorescent probes (Fig. S2B); format: cell-based; details: 2 and 16 µg/mL, 30 min 37 °C
Description: as §1, §2, §3

S. aureus ATCC 25923 [2] = test: Airyscan confocal super-resolution imaging, comparison of probes (Fig. S2C); format: cell-based; details: 2 and 16 µg/mL, 30 min 37 °C
Procedure: Figure S2. Comparison of probe 7 and probe 9 to commercial fluorescent probes using flow cytometry
and microscopy. […]
Van-BODIPY (V34850, Invitrogen™) in S. aureus ATCC 25923. Bacteria were stained with probes (2 and 16
µg/mL, Green) for 30 min at 37 °C. Arrows indicate cells with Van-BODIPY entering cytoplasm. Scale bar = 1 µm.

S. aureus = details: tested S. aureus strains (Table S3); dissolved in DMSO
Procedure: Bacteria were obtained from the American Type Culture Collection (ATCC; Manassas, VA, USA), Merck Sharp & Dohme (Kenilworth, NJ), the Coli Genetic Stock Center (CGSC, Yale University), Network on Antimicrobial Resistance in Staphylococcus aureus (NARSA) via BEI Resources (www.beiresources.org) and independent academic clinical isolate and mutant collections. All species used in this study were described fully in Table S4. Bacteria were cultured in Cation-Adjusted Mueller-Hinton Broth (CAMHB, Bacto Laboratories, Cat No. 212322) or Muller Hinton Broth (MHB, Bacto Laboratories, Cat No. 211443) at 37 °C overnight. A sample of each culture was then diluted 50-fold in MHB and incubated at 37 °C for 1.5–3 h. […] The compounds were serially diluted two-fold across the wells, with concentrations ranging from 0.06 µg/mL to 128 µg/mL, plated in duplicate. The resultant mid-log phase culture was diluted to 1 × 10^6 CFU/mL, then 50 µL was added to each well of the compound-containing 96-well plates (Corning, Cat. No 3641, non-binding surface (NBS) plates), giving a cell density of 5 × 10^5 CFU/mL, and a final compound concentration range of 0.03 µg/mL to 64 µg/mL.

Row | SMILES | MIC (E. coli) [µg/mL] | staining of S. aureus (flow cytometry, in words) (S. aureus ATCC 25923 [1]) | staining of E. coli (flow cytometry, in words) (E. coli ATCC25922) | peptidoglycan labelling pattern (Airyscan imaging, in words) (S. aureus ATCC 25923 [2]) | antimicrobial activity at the highest concentration tested (S. aureus) [µg/mL]
1 | CN[C@H](CC(C)C)C(=O)N[C@H]1C(=O)N[C@@H](CC(N)=O)C(=O)N[C@H]2C(=O)N[C@H]3C(=O)N[C@H](C(=O)N[C@H](C(=O)O)c4cc(O)cc(O)c4-c4cc3ccc4O)[C@H](O)c3ccc(c(Cl)c3)Oc3cc2cc(c3O[C@@H]2O[C@H](CO)[C@@H](O)[C@H](O)[C@H]2O[C@H]2C[C@](C)(NC(=O)CCc3ccc4n3[B-](F)(F)[N+]3=C(C)C=C(C)C3=C4)[C@H](O)[C@H](C)O2)Oc2ccc(cc2Cl)[C@H]1O [Van-BODIPY] | > 64 | greatest intensity | stained a larger population of cells than the other probes | label the cells more uniformly | 
2 | CC(C)C[C@H](C(=O)N[C@H]1C(=O)N[C@@H](CC(N)=O)C(=O)N[C@H]2C(=O)N[C@H]3C(=O)N[C@H](C(=O)N[C@H](C(=O)O)c4cc(O)cc(O)c4-c4cc3ccc4O)[C@H](O)c3ccc(c(Cl)c3)Oc3cc2cc(c3O[C@@H]2O[C@H](CO)[C@@H](O)[C@H](O)[C@H]2O[C@H]2C[C@](C)(N)[C@H](O)[C@H](C)O2)Oc2ccc(cc2Cl)[C@H]1O)N(C)C(=S)Nc1ccc2c(c1)C(=O)OC21c2ccc(O)cc2Oc2cc(O)ccc21 [Van-FITC] | > 64 | the worst | did not show much staining | no fluorescence signal observed at 2 µg/mL | > 32
